# From PMC11992225, “Antibacterial compounds against non-growing and intracellular bacteria” (npj Antimicrobials and Resistance, 2025)
# Values joined by “and” are separate entries in the source; they are usually repeats but may differ in a detail not shown here. Equal values may be shown once.
# Key:
# [1] = test system: SOS response in UPEC CFT073; test: SOS response induction analysis, pAED2 cda' promoter mScarlet-I reporter; format: cell-based, Escherichia coli; settings: 20 μM; for induction of the SOS response in growing UPEC cultures: 6 h, MMC, BLE, ECH in 1:4 CA-MHB pH 7.4, PLI, SAT, EVO in LPM pH 5.5; for growth inhibition of growing UPEC: LPM pH 5.5, Fig. S7C,D
# Procedure: Since we aimed to test SOS induction in non-growing cultures, it was essential to use a reporter with no leaky expression in the stationary phase. Therefore, we constructed the plasmid pAED2, based on the low copy-number plasmid pSC101, which contains the cda’ promoter in front of the mScarlet-I-encoding reporter gene.
# Overnight cultures of CFT073 harboring a reporter plasmid were grown in 3 ml of LB supplemented with 100 µg/ml carbenicillin (Cb), then diluted 1:100 into the medium used for testing. For validation of the pANO1::cda’ reporter, an overnight culture was diluted into CA-MHB (supplemented with 40 mM HEPES, pH 7.4, and 100 µg/ml Cb) and grown to an OD600 ≈ 0.5 at 37 °C with shaking at 200 rpm in an Erlenmeyer flask. […] Empty wells were filled with water. […] The experiment was performed in triplicate.
# For analysis of the SOS induction by anti-cancer compounds, the overnight cultures were diluted either into 1:4 diluted CA-MHB (40 mM HEPES, pH 7.4) or LPM (30 mM MES, pH 5.5) that were supplemented with 100 µg/ml Cb. For analysis of the effect on growing bacteria, the cultures were incubated at 37 °C with shaking at 200 rpm in Erlenmeyer flasks for 90 min, to an OD600 ≈ 0.5. Then, 180 μl aliquots were transferred to 96-well plates, and 20 μl of the 200 μM drug solution was added to achieve a final concentration of 20 μM. The plates were incubated in a microplate reader (BioTek Synergy H1) at 37 °C with continuous shaking for 6 h. OD600 and mScarlet fluorescence were recorded throughout the incubation.
# For analysis of the effect of anti-cancer compounds on stationary phase- and regrowing bacteria, the cultures were incubated for 24 h at 37 °C with shaking at 200 rpm in Erlenmeyer flasks. […] The samples were incubated for 24 h at 37 °C in standing 1.5 ml tubes. Before and after the drug treatment, 25 μl aliquots were taken and diluted by mixing with 175 μl PBS. OD600 and mScarlet fluorescence were recorded using a microplate reader (BioTek Synergy H1).
# After the treatment, stationary-phase bacteria were harvested by centrifugation at 5000 × g for 5 min at 20 °C, washed twice with PBS, and resuspended in 475 μl PBS.
# TC7 cells = test: TC7 cell viability upon drug exposure, MTS assay; format: cell-based; settings: at the MIC concentrations, 12 h, no bacteria
# Procedure: TC7 cells were grown to confluence in transparent 96-well cell culture plates (TPP) in the same cell culture medium used for the in vitro infection assay. Just prior to the experiment, the medium was discarded, and the cells were washed twice with sterile PBS to remove any traces of medium or dead cells. […] The plate was incubated at 37 °C in a CO2 incubator for 12 h, under the same conditions as the infection assay.
# The 3-(4,5-dimethylthiazol-2-yl)-5-(3-carboxymethoxyphenyl)-2-(4-sulfophenyl)-2H-tetrazolium (MTS) assay was performed using the CellTiter 96® AQueous One Solution Cell Proliferation Assay kit (Promega), according to the manufacturer’s instructions. Briefly, 20 μl of CellTiter 96 AQueous One Solution Reagent was added to each well, and the plate was incubated for 2 h at 37 °C in a CO2 incubator. The OD490 of the samples was measured using a Spark multimode plate reader (Tecan). The raw values were normalized to the control wells incubated with infection buffer only. The experiment was performed in duplicate.
# [2] = test system: non-growing P. aeruginosa DSM1117; test: Dose-dependent killing analysis (CFU spot-plating) of stationary-phase P. aeruginosa; format: cell-based, Pseudomonas aeruginosa; settings: P. aeruginosa; for log10(CFU/ml) of treated nongrowing bacteria (single replicates): before treatment 8.887
# Procedure: The cultures were grown and treated for 24 h in 1:4 CA-MHB (pH 7.4).
# For survival analysis, bacteria were cultivated as described for the dose–response dilution-regrowth assay. Assays with UPEC were conducted at the CBCS screening facility using 96-well plates with a 200 μl sample volume, and compounds were dispensed using the Echo® (Labcyte) system. P. aeruginosa and S. aureus samples were treated according to the protocol used for the dilution-regrowth experiments. Treated samples were serially diluted 10-fold in PBS, and 10 μl drops were spot-plated onto rectangular LB agar plates using either a Beckman NXP robot (for UPEC) or an Integra VIAFLO96 electronic pipette (for P. aeruginosa and S. aureus). The LB agar plates were incubated overnight at 37 °C and scanned. Colonies were counted at the spots of the lowest dilution where individual colonies could be accurately distinguished. Each colony was manually marked on a separate image layer using the GNU Image Manipulation Program, and counted using NIST’s Integrated Colony Enumerator (NICE 1.4) software. The experiments were performed in three biological replicates.
# [3] = test system: non-growing P. aeruginosa; test: Time-dependent effects of drug treatment on regrowth, P. aeruginosa; format: cell-based, Pseudomonas aeruginosa; settings: 10 µM, OD600 8 h after dilution
# Procedure: (§1) For screening and concentration-dependent characterization of the hit compounds, we used a 24-h incubation to capture their effects, although the actual onset of their activity may occur much sooner. To assess the speed of action, we treated stationary-phase cultures of three organisms with compounds that had previously shown a strong regrowth delay at 10 µM. We selected compounds that, in earlier tests, strongly delayed regrowth, such that diluted cultures remained below an OD600 of 0.12 (indicating no growth) after 6 h for UPEC or 8 h for P. aeruginosa and S. aureus in drug-free medium.
# (§2) We collected samples at different times during the 24-h incubation, diluted them 2500-fold, and measured the OD600 after 6 or 8 h of further incubation, respectively. […] Rifampicin acts quickly against non-growing S. aureus, while the effects of the other compounds increase gradually during incubation but are already apparent within the first hour of treatment.
# Bacteria were cultivated in 1:4 diluted CA-MHB (40 mM HEPES, pH 7.4) for 24 h. Aliquots were dispensed into a 96-well plate, and compounds were added at a 10 µM concentration. Samples were collected at designated time points, diluted 2500-fold as described for the dilution-regrowth assay, and incubated in standing plates within a humid box at 37 °C. The OD600 of the samples was measured to assess regrowth using a microplate reader (BioTek Synergy H1) after 6 h for UPEC and 8 h for P. aeruginosa and S. aureus. The experiment was performed in triplicates.
# non-growing S. aureus = test: Time-dependent effects of drug treatment on regrowth, S. aureus; format: cell-based, Staphylococcus aureus; settings: 10 µM, OD600 8 h after dilution
# Procedure: as §1, §2
# Bacteria were cultivated in 1:4 diluted CA-MHB (40 mM HEPES, pH 7.4) for 24 h. Aliquots were dispensed into a 96-well plate, and compounds were added at a 10 µM concentration. […] The OD600 of the samples was measured to assess regrowth using a microplate reader (BioTek Synergy H1) after 6 h for UPEC and 8 h for P. aeruginosa and S. aureus. […]
compound,measurement,setting,value
Plicamycin,induction of the SOS response in growing UPEC cultures,[1],not detected
same,growth inhibition of growing UPEC,[1],only a slight growth inhibition
CCCCC(CC)CNC(=N)NC(=N)NCCCCCCNC(=N)NC(=N)NCC(CC)CCCC (stereo not shown) [Alexidine],toxicity to TC7 epithelial cells,TC7 cells,toxic
CC(=O)[O][Pt]([NH2])([Cl])([Cl])([NH]C1CCCCC1)[O]C(C)=O [Satraplatin],"killing, average Δlog10(CFU/ml)",[2]; drug concentration 0.1,-0.012 log10(CFU/ml)
same,"log10(CFU/ml) after treatment, replicate 1",[2]; drug concentration 0.1,8.699 log10(CFU/ml)
same,"log10(CFU/ml) after treatment, replicate 2",[2]; drug concentration 0.1,9.301 log10(CFU/ml)
same,"log10(CFU/ml) after treatment, replicate 3",[2]; drug concentration 0.1,8.699 log10(CFU/ml)
same,"killing, average Δlog10(CFU/ml)",[2]; drug concentration 0.5,0.420 log10(CFU/ml)
same,"log10(CFU/ml) after treatment, replicate 1",[2]; drug concentration 0.5,8.477 log10(CFU/ml)
same,"log10(CFU/ml) after treatment, replicate 2",[2]; drug concentration 0.5,8.845 log10(CFU/ml)
same,"log10(CFU/ml) after treatment, replicate 3",[2]; drug concentration 0.5,8.079 log10(CFU/ml)
same,"killing, average Δlog10(CFU/ml)",[2]; drug concentration 2.5,1.880 log10(CFU/ml)
same,"log10(CFU/ml) after treatment, replicate 1",[2]; drug concentration 2.5,7.845 log10(CFU/ml)
same,"log10(CFU/ml) after treatment, replicate 2",[2]; drug concentration 2.5,8.477 log10(CFU/ml)
same,"log10(CFU/ml) after treatment, replicate 3",[2]; drug concentration 2.5,4.699 log10(CFU/ml)
same,"killing, average Δlog10(CFU/ml)",[2]; drug concentration 10,3.310 log10(CFU/ml)
same,"log10(CFU/ml) after treatment, replicate 1",[2]; drug concentration 10,5.000 log10(CFU/ml)
same,"log10(CFU/ml) after treatment, replicate 2",[2]; drug concentration 10,6.778 log10(CFU/ml)
same,"log10(CFU/ml) after treatment, replicate 3",[2]; drug concentration 10,4.954 log10(CFU/ml)
same,toxicity to TC7 epithelial cells,TC7 cells,toxic
same,induction of the SOS response in growing UPEC cultures,[1],induced the SOS response
same,growth inhibition of growing UPEC,[1],only a slight growth inhibition
same,speed of action: regrowth delay over treatment time,[3],act more slowly
C[C@@H]1CN(c2c(F)c(N)c3c(=O)c(C(=O)O)cn(C4CC4)c3c2F)C[C@H](C)N1 [Sparfloxacin],"killing, average Δlog10(CFU/ml)",[2]; drug concentration 0.1,0.268 log10(CFU/ml)
same,log10(CFU/ml) of treated nongrowing bacteria (single replicates),[2]; drug concentration 0.1,8.602 log10(CFU/ml) and 9.079 log10(CFU/ml) and 8.176 log10(CFU/ml)
same,"killing, average Δlog10(CFU/ml)",[2]; drug concentration 0.5,0.923 log10(CFU/ml)
same,log10(CFU/ml) of treated nongrowing bacteria (single replicates),[2]; drug concentration 0.5,8.114 log10(CFU/ml) and 8.000 log10(CFU/ml) and 7.778 log10(CFU/ml)
same,"killing, average Δlog10(CFU/ml)",[2]; drug concentration 2.5,3.104 log10(CFU/ml)
same,log10(CFU/ml) of treated nongrowing bacteria (single replicates),[2]; drug concentration 2.5,5.903 log10(CFU/ml) and 6.845 log10(CFU/ml) and 4.602 log10(CFU/ml)
same,"killing, average Δlog10(CFU/ml)",[2]; drug concentration 10,4.887 log10(CFU/ml)
same,log10(CFU/ml) of treated nongrowing bacteria (single replicates),[2]; drug concentration 10,=<4 log10(CFU/ml)
same,speed of action: regrowth delay over treatment time,[3],act more slowly
N[C@@H]1[C@H]2CN(c3nc4c(cc3F)c(=O)c(C(=O)O)cn4-c3ccc(F)cc3F)C[C@@H]12 [Trovafloxacin],"killing, average Δlog10(CFU/ml)",[2]; drug concentration 0.1,0.236 log10(CFU/ml)
same,log10(CFU/ml) of treated nongrowing bacteria (single replicates),[2]; drug concentration 0.1,8.699 log10(CFU/ml) and 8.954 log10(CFU/ml) and 8.301 log10(CFU/ml)
same,"killing, average Δlog10(CFU/ml)",[2]; drug concentration 0.5,0.717 log10(CFU/ml)
same,log10(CFU/ml) of treated nongrowing bacteria (single replicates),[2]; drug concentration 0.5,7.954 log10(CFU/ml) (2×) and 8.602 log10(CFU/ml)
same,"killing, average Δlog10(CFU/ml)",[2]; drug concentration 2.5,1.077 log10(CFU/ml)
same,log10(CFU/ml) of treated nongrowing bacteria (single replicates),[2]; drug concentration 2.5,7.778 log10(CFU/ml) and 7.954 log10(CFU/ml) and 7.699 log10(CFU/ml)
same,"killing, average Δlog10(CFU/ml)",[2]; drug concentration 10,1.687 log10(CFU/ml)
same,log10(CFU/ml) of treated nongrowing bacteria (single replicates),[2]; drug concentration 10,7.301 log10(CFU/ml) (2×) and 7.000 log10(CFU/ml)
same,speed of action: regrowth delay over treatment time,[3],act more slowly
CN1CCN(c2cc3c(cc2F)c(=O)c(C(=O)O)cn3-c2ccc(F)cc2)CC1 [Difloxacin],speed of action: regrowth delay over treatment time,[3],act more slowly
CO[C@H]1/C=C/O[C@@]2(C)Oc3c(C)c(O)c4c(O)c(c(/C=N/N5CCN(C)CC5)c(O)c4c3C2=O)NC(=O)/C(C)=C\C=C\[C@H](C)[C@H](O)[C@@H](C)[C@@H](O)[C@@H](C)[C@H](OC(C)=O)[C@@H]1C [Rifampicin],speed of action: regrowth delay over treatment time,non-growing S. aureus,acts quickly
